The values that follow come from ChEMBL document CHEMBL3785021, “Isatin analogs as novel inhibitors of Candida spp. β-carbonic anhydrase enzymes” (Bioorg Med Chem, 2016).

Assay [1] addresses T1, Carbonic anhydrase (Candida glabrata CBS 138, UniProt Q6FTL6).
T1 sequence (Q6FTL6 whole entry): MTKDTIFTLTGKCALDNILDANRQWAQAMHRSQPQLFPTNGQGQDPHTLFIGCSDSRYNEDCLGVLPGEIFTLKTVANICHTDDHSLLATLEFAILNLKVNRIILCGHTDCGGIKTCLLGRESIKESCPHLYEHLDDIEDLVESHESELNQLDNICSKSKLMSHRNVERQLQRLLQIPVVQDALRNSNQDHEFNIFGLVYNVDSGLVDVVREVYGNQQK
Kind of assay: Inhibition of recombinant Candida glabrata beta carbonic anhydrase NCE103 expressed in Escherichia coli preincubated for 15 mins by stopped-flow CO2 hydration assay. Set-up: species or system Nakaseomyces glabratus.

For assay [2], the target named is T2, Carbonic anhydrase (Candida albicans (strain SC5314 / ATCC MYA-2876) (Yeast), UniProt Q5AJ71).
T2 sequence (Q5AJ71 whole entry): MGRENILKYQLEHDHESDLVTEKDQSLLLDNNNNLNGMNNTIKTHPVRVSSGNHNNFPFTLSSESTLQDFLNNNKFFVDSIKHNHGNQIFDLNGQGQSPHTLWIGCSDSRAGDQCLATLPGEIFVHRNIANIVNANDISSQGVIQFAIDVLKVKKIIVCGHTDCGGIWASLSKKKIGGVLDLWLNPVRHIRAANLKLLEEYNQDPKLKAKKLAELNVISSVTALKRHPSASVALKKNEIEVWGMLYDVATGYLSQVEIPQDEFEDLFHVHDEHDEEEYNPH
The assay is described as follows: Inhibition of recombinant Candida albicans beta carbonic anhydrase NCE103 expressed in Escherichia coli preincubated for 15 mins by stopped-flow CO2 hydration assay.

The next assay deals with Carbonic anhydrase 2 (Homo sapiens, UniProt P00918). Kind of assay: Inhibition of recombinant human carbonic anhydrase 2 expressed in Escherichia coli preincubated for 15 mins by stopped-flow CO2 hydration assay.
Another assay addresses Carbonic anhydrase 1 (Homo sapiens, UniProt P00915). Kind of assay: Inhibition of recombinant human carbonic anhydrase 1 expressed in Escherichia coli preincubated for 15 mins by stopped-flow CO2 hydration assay.

Carbonic anhydrase 1, sequence (P00915 whole entry): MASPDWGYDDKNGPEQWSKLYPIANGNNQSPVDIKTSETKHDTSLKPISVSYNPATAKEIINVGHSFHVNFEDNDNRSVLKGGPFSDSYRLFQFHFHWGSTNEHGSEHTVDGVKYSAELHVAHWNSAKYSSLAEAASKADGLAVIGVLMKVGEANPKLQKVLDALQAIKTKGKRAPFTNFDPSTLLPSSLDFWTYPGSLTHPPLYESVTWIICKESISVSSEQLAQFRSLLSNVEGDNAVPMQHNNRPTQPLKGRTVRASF

The term Ki denotes a measure of affinity in units of concentration, obtained from inhibition or displacement. On to `NS(=O)(=O)c1ccc(/N=C2\C(=O)Nc3ccc([N+](=O)[O-])cc32)cc1`, for which the results for the Ki at Carbonic anhydrase [1] and at Carbonic anhydrase [2] were 0.0228 µM and 0.0341 µM, respectively.

Take `Cc1ccc2c(c1)/C(=N/c1ccc(S(N)(=O)=O)cc1)C(=O)N2`: the figures for the Ki on Carbonic anhydrase [1] and at Carbonic anhydrase [2] were 0.0297 µM and 0.128 µM, respectively.

On to `Cc1ccc2c(c1)/C(=N/c1cccc(S(N)(=O)=O)c1)C(=O)N2`, for which the Ki was determined as 0.0459 µM on Carbonic anhydrase [1], 0.565 µM at Carbonic anhydrase 2 and 0.157 µM at Carbonic anhydrase [2].

For `Cc1ccc2c(c1)/C(=N/c1ccccc1S(N)(=O)=O)C(=O)N2`, the results for the inhibition constant (Ki) on Carbonic anhydrase [1] and at Carbonic anhydrase [2] were 0.0623 µM and 0.139 µM, respectively.

In the case of `NS(=O)(=O)c1cccc(/N=C2\C(=O)Nc3ccc(OC(F)(F)F)cc32)c1`, the results for the Ki at Carbonic anhydrase [1] and on Carbonic anhydrase [2] were 0.0535 µM and 0.088 µM, respectively.

On to `NS(=O)(=O)c1ccc(/N=C2\C(=O)Nc3ccc(OC(F)(F)F)cc32)cc1`, for which the Ki at Carbonic anhydrase [1] was 0.0451 µM; on Carbonic anhydrase [2], 0.0536 µM.

Turning to `NS(=O)(=O)c1cccc(/N=C2\C(=O)Nc3ccc([N+](=O)[O-])cc32)c1`, the Ki is 0.0231 µM on Carbonic anhydrase [1] and 0.0357 µM at Carbonic anhydrase [2].

Regarding `NS(=O)(=O)c1ccccc1/N=C1\C(=O)Nc2ccccc21`, the Ki at Carbonic anhydrase [1] came to 0.0665 µM; on Carbonic anhydrase [2], 0.136 µM.

As for `NS(=O)(=O)c1ccc(N=C2C(=O)Nc3ccccc32)cc1`, the Ki on Carbonic anhydrase [1] stood at 0.0484 µM; on Carbonic anhydrase 2, 0.523 µM; on Carbonic anhydrase 1, 0.422 µM; at Carbonic anhydrase [2] it was 0.0865 µM.

Regarding `CN1C(=O)/C(=N\c2ccc(S(N)(=O)=O)cc2)c2cc(F)ccc21`, the Ki is 0.0324 µM on Carbonic anhydrase [1] and 0.0793 µM at Carbonic anhydrase [2].

For `CN1C(=O)/C(=N\c2ccc(S(N)(=O)=O)cc2)c2ccccc21`, the Ki on Carbonic anhydrase [1] came out at 0.0397 µM; at Carbonic anhydrase [2], 0.0759 µM.

Take `CN1C(=O)/C(=N\c2ccc(S(N)(=O)=O)cc2)c2cc(Br)ccc21`: the Ki on Carbonic anhydrase [1] was determined as 0.0371 µM; on Carbonic anhydrase [2], 0.156 µM.

Take `NS(=O)(=O)c1cccc(/N=C2\C(=O)Nc3ccccc32)c1`: the values for the inhibitory constant (Ki) at Carbonic anhydrase [1] and on Carbonic anhydrase [2] were 0.0851 µM and 0.0981 µM, respectively.

With `NS(=O)(=O)c1ccc(/N=C2\C(=O)Nc3ccc(Cl)cc32)cc1`, the Ki on Carbonic anhydrase [1] is 0.0382 µM; at Carbonic anhydrase [2] it was 0.0833 µM.

Take `NS(=O)(=O)c1ccccc1/N=C1\C(=O)Nc2ccc(OC(F)(F)F)cc21`: the Ki was 0.154 µM at Carbonic anhydrase [1] and 0.295 µM at Carbonic anhydrase [2].

On to `CN1C(=O)/C(=N\c2ccc(S(N)(=O)=O)cc2)c2cc(Cl)ccc21`, for which the inhibition constant (Ki) at Carbonic anhydrase [1] stood at 0.0365 µM; at Carbonic anhydrase [2], 0.178 µM.

Turning to `NS(=O)(=O)c1ccc(/N=C2\C(=O)Nc3ccc(F)cc32)cc1`, the Ki at Carbonic anhydrase [1] turned out to be 0.0216 µM; on Carbonic anhydrase [2], 0.0852 µM.

Take `CN1C(=O)/C(=N\c2ccc(S(N)(=O)=O)cc2)c2cc([N+](=O)[O-])ccc21`: the results for the Ki on Carbonic anhydrase [1] and at Carbonic anhydrase [2] were 0.0163 µM and 0.0217 µM, respectively.

For `NS(=O)(=O)c1ccccc1/N=C1\C(=O)Nc2ccc(Cl)cc21`, the inhibition constant Ki on Carbonic anhydrase [1] came to 0.0589 µM; on Carbonic anhydrase [2] it was 0.0657 µM.

As to `Cc1ccc2c(c1)/C(=N/c1ccc(S(N)(=O)=O)cc1)C(=O)N2C`, the results for the Ki on Carbonic anhydrase [1] and at Carbonic anhydrase [2] were 0.0353 µM and 0.0841 µM, respectively.

In the case of `NS(=O)(=O)c1ccccc1/N=C1\C(=O)Nc2ccc(F)cc21`, the results for the Ki on Carbonic anhydrase [1] and at Carbonic anhydrase [2] were 0.0554 µM and 0.0915 µM, respectively.

Regarding `NS(=O)(=O)c1cccc(/N=C2\C(=O)Nc3ccc(F)cc32)c1`, the values for the Ki on Carbonic anhydrase [1] and on Carbonic anhydrase [2] were 0.0451 µM and 0.0613 µM, respectively.

In the case of `NS(=O)(=O)c1cccc(/N=C2\C(=O)Nc3ccc(Cl)cc32)c1`, the Ki at Carbonic anhydrase [1] came to 0.0501 µM; at Carbonic anhydrase [2] it was 0.0548 µM.
